Here are results for seven compounds from ChEMBL document CHEMBL4610109, “Targeting Orthosteric and Allosteric Pockets of Aromatase via Dual-Mode Novel Azole Inhibitors” (ACS Med Chem Lett, 2020).

Test [1] has as its target T1, Aromatase (Homo sapiens, UniProt P11511).
T1 sequence (P11511 whole entry): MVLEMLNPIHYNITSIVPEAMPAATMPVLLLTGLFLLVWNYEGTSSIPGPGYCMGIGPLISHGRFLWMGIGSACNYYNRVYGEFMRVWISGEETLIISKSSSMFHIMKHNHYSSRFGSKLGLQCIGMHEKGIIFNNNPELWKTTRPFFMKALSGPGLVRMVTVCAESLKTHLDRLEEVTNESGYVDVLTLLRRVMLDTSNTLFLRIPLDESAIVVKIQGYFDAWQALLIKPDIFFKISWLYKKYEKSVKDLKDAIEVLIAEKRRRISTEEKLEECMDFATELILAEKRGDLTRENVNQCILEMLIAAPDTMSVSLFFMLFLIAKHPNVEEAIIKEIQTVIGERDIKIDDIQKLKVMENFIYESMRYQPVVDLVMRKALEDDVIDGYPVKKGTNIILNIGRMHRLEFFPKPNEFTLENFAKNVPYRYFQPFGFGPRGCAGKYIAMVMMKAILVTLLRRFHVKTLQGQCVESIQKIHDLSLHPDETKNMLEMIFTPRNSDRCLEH
Briefly: Inhibition of recombinant human aromatase preincubated for 10 mins followed by substrate and beta-NADP+ addition and measured for 60 mins by fluorescence based assay.

Test [2] has as its system MDA-MB-231. In words: Growth inhibition of human ER-negative MDA-MB-231 cells incubated for 72 hrs by cell counter method. The class given is functional. The conditions noted are these: MDA-MB-231, 72 h.
The subject of test [3] is MCF7. In words: Growth inhibition of human ER-positive MCF7 cells incubated for 72 hrs by cell counter method. Type of test: functional. The conditions noted are these: MCF7, 72 h.

A value given as a limit tells only on which side of the number the result lay.

Turning to `CCC#CCOc1cc(Cn2ccnc2)c2c(=O)c3ccccc3oc2c1`, the IC50 in test [1] was found to be 2.85 µM. In addition, the GI50 in test [2] was found to be 17.5 µM; in test [3], 6.3 µM.

As to `CCC#CCOc1cc(Cn2ccnc2)c2oc3ccccc3c(=O)c2c1`, in test [1], the IC50 worked out at 5.55 µM. Moreover, the GI50 in test [2] worked out at 21.1 µM; in test [3] it was 52.3 µM.

For the compound `O=c1c2ccccc2oc2c(Cn3ccnc3)cccc12`, the GI50 came to 58.3 µM in test [2] and 69.1 µM in test [3].

Regarding `CCC#CCOc1ccc2c(=O)c3ccc(Cn4ccnc4)cc3oc2c1`, the IC50 in test [1] came out at 0.77 µM. For the same compound, the GI50 in test [2] and in test [3] was above 100 µM in each case.

Consider `O=c1c2ccccc2oc2cc(Cn3ccnc3)ccc12`, for which the GI50 in test [2] was 30.4 µM; in test [3] it was 19.9 µM.

`N#Cc1ccc(C(c2ccc(C#N)cc2)n2cncn2)cc1` [LETROZOLE]: in test [2], the GI50 came out at 34 µM.

Regarding `O=c1c2ccccc2oc2cccc(Cn3ccnc3)c12`, the GI50 in test [2] is 44.3 µM; in test [3] it was 59 µM.

As a reminder, the IC50 is the concentration needed to halve the response being measured. In general, GI50 refers to the concentration giving 50% growth inhibition.
